Source: ChEMBL document CHEMBL1129561 (J Med Chem, 1996)

Columns and labels:
Progesterone receptor [1] = biological target: T1, Progesterone receptor (Homo sapiens, UniProt P06401); test: Effective concentration against human Progesterone receptor B isoform expressed in CV-1 cells; assay type: cell-based
T1 sequence (P06401 whole entry): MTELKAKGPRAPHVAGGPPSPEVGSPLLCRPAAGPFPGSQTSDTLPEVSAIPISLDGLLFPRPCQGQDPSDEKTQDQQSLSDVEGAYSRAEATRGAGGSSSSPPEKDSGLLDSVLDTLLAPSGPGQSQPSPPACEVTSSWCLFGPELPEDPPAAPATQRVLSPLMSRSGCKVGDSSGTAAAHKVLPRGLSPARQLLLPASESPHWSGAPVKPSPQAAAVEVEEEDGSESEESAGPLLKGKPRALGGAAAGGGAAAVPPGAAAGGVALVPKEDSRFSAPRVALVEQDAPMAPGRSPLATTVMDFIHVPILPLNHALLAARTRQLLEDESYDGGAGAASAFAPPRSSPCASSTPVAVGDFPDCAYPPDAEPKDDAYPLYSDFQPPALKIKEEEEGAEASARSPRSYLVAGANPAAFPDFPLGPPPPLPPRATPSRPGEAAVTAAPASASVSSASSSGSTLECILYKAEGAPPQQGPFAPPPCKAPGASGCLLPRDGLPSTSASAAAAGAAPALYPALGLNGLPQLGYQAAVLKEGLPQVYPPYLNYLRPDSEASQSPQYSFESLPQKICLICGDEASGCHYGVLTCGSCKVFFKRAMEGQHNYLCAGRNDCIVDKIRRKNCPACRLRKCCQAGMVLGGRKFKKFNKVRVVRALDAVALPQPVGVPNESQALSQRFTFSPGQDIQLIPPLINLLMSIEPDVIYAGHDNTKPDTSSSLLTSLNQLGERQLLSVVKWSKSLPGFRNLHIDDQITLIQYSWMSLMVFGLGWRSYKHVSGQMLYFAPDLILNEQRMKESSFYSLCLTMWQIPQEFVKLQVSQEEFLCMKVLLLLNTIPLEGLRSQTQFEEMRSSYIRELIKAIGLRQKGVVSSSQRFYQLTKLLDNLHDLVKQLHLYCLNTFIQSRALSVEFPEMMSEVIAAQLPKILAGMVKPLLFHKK

Progesterone receptor [2] = biological target: T1, Progesterone receptor
Androgen receptor [3] = biological target: T2, Androgen receptor (Homo sapiens, UniProt P10275)
T2 sequence (P10275 whole entry): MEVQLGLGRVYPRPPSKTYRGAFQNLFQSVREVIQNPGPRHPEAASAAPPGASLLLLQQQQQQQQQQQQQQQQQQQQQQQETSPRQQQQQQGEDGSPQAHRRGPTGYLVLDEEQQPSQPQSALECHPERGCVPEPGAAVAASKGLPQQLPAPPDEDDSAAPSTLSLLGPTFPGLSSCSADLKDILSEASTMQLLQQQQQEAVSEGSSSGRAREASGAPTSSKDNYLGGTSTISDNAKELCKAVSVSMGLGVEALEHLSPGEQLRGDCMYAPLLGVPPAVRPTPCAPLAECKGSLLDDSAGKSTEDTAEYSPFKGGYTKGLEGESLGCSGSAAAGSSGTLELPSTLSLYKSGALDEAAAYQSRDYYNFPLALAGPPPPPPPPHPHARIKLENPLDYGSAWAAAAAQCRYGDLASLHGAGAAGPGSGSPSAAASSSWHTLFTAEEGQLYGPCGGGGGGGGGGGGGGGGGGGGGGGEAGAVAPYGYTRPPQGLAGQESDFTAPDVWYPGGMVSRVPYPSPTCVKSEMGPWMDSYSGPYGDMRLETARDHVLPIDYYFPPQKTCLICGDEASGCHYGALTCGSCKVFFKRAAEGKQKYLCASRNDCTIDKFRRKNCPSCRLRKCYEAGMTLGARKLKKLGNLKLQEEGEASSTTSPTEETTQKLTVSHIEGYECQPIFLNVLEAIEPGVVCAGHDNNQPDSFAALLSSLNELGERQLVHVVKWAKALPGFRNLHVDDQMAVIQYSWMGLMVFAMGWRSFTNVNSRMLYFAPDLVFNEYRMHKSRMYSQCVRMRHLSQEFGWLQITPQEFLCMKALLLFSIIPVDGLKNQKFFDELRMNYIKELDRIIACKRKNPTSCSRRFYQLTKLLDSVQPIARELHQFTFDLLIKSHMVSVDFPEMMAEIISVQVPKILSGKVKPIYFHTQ
Description: Binding affinity determined against human Androgen receptor

Glucocorticoid receptor [4] = biological target: T3, Glucocorticoid receptor (Homo sapiens, UniProt P04150)
T3 sequence (P04150 whole entry): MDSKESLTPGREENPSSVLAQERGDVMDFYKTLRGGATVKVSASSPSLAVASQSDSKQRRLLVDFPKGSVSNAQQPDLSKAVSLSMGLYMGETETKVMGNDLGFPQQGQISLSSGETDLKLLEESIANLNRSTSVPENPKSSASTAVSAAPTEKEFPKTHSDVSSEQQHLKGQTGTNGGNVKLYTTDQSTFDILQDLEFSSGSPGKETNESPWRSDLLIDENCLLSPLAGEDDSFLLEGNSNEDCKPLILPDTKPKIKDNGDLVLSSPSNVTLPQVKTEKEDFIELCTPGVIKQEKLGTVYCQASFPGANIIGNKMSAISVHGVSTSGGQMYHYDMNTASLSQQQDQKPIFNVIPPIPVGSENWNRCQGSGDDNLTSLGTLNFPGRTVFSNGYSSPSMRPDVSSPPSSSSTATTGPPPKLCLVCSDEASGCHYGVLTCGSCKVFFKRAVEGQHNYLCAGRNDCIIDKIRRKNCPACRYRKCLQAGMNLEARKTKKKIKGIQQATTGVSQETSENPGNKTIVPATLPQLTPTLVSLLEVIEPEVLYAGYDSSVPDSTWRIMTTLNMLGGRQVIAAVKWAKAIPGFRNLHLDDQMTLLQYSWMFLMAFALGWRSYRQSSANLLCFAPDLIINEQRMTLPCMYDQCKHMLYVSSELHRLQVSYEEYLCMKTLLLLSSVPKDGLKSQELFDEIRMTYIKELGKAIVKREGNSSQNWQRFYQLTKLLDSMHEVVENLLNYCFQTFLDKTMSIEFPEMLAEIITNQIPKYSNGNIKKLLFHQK
Description: Binding affinity was determined for human glucocorticoid receptor(hGR).

Progesterone receptor [5] = biological target: T1, Progesterone receptor; remark: listed apart in the source
[6] = biological target: T4, Progesterone receptor (Homo sapiens) (UniProt P06401); conditions: CV-1
T4 sequence (whole entry): T1 sequence (P06401 whole entry)

Glucocorticoid receptor [7] = biological target: T3, Glucocorticoid receptor; test: Inhibitory activity against human glucocorticoid receptor (hGR)
[8] = biological target: T5, Mineralocorticoid receptor (Homo sapiens, UniProt P08235); test: Inhibitory activity against human mineralocorticoid receptor (hMR)
T5 sequence (P08235 whole entry): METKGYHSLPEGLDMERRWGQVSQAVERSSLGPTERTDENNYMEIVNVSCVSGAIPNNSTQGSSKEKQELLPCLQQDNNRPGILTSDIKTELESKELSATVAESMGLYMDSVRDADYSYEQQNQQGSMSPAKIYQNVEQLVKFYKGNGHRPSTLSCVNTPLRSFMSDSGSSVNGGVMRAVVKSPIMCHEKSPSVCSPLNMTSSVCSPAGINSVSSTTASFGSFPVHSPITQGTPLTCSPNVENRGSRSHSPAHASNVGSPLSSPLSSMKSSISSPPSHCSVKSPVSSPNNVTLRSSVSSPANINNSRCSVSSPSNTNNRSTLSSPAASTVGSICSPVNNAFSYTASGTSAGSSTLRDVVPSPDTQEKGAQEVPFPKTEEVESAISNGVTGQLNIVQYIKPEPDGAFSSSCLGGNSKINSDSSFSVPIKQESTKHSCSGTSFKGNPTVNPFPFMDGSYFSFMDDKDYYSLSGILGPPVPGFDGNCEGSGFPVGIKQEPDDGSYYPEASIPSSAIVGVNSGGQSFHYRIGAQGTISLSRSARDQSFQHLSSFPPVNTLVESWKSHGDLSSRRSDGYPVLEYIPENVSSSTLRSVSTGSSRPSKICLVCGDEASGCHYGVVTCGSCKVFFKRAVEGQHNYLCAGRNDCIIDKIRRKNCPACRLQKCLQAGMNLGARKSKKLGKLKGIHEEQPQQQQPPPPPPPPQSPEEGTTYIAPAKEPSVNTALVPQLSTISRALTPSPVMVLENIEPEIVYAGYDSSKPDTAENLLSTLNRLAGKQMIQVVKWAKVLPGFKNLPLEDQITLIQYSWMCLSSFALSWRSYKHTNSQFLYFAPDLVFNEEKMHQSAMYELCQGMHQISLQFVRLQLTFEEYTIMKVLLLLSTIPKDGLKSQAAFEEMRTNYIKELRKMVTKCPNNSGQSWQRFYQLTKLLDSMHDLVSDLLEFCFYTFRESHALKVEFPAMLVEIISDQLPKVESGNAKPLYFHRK

Progesterone receptor [9] = biological target: T1, Progesterone receptor; remark: listed apart in the source
Estrogen receptor [10] = biological target: T6, Estrogen receptor (Homo sapiens, UniProt Q92731+P03372)
Description: Inhibitory activity against human estrogen receptor

Estrogen receptor [11] = biological target: T6, Estrogen receptor; remark: listed apart in the source
Description: Binding affinity for human estrogen receptor

Glucocorticoid receptor [12] = biological target: T3, Glucocorticoid receptor; test: Binding affinity against human glucocorticoid receptor(hGR).
Androgen receptor [13] = biological target: T2, Androgen receptor; remark: listed apart in the source
Description: Inhibitory activity against human Androgen receptor

Androgen receptor [14] = biological target: T2, Androgen receptor; remark: listed apart in the source
Description: Binding affinity for human Androgen receptor

Glucocorticoid receptor [15] = biological target: T3, Glucocorticoid receptor; remark: listed apart in the source
[16] = biological target: T5, Mineralocorticoid receptor
[17] = biological target: T4, Progesterone receptor (Homo sapiens); conditions: CV-1; remark: listed apart in the source

| EC50 (Progesterone receptor [1]) | IC50 (Progesterone receptor [2]) | Ki (Androgen receptor [3]) | Ki (Glucocorticoid receptor [4]) | Ki (Progesterone receptor [5]) | Max inhibition [6] | IC50 [8] | SMILES | IC50 (Glucocorticoid receptor [7]) | IC50 (Progesterone receptor [9]) | IC50 (Estrogen receptor [10]) | Ki (Estrogen receptor [11]) | Ki (Glucocorticoid receptor [12]) | IC50 (Androgen receptor [13]) | Ki (Androgen receptor [14]) | IC50 (Glucocorticoid receptor [15]) | IC50 [16] | Max inhibition [17] |
| --- | --- | --- | --- | --- | --- | --- | --- | --- | --- | --- | --- | --- | --- | --- | --- | --- | --- |
| 3300 nM | 1600 nM | 2320 nM | 4420 nM | 84 nM | 61% | – | C=C1C=C(C)CC(C)(C)C1C/C=C/c1cc(OC)c(Br)cc1O (stereo unspecified) | – | – | – | – | – | – | – | – | – | – |
| – | 210 nM | – | 1770 nM | 218 nM | 94% | 1500 nM | C=C1CCCC(C)(C)[C@H]1Cc1cc(OC)c(Br)cc1O | > 10000 nM | 741 nM | > 10000 nM | > 10000 nM | – | – | – | – | – | – |

| SMILES | EC50 (Progesterone receptor [1]) | IC50 (Progesterone receptor [2]) | Ki (Androgen receptor [3]) | Ki (Glucocorticoid receptor [4]) | Ki (Progesterone receptor [5]) | Max inhibition [6] | IC50 [8] | IC50 (Glucocorticoid receptor [7]) | IC50 (Progesterone receptor [9]) | IC50 (Estrogen receptor [10]) | Ki (Estrogen receptor [11]) | Ki (Glucocorticoid receptor [12]) | IC50 (Androgen receptor [13]) | Ki (Androgen receptor [14]) | IC50 (Glucocorticoid receptor [15]) | IC50 [16] | Max inhibition [17] |
| --- | --- | --- | --- | --- | --- | --- | --- | --- | --- | --- | --- | --- | --- | --- | --- | --- | --- |
| C=C1CC[C@@H](Br)C(C)(C)[C@H]1Cc1cc(OC)c(Br)cc1O | – | 354 nM | – | – | 490 nM | 83% | – | > 10000 nM | 549 nM | > 10000 nM | – | 3210 nM | 449 nM | – | – | – | – |
| CN(C)c1ccc([C@H]2CC3(C)[C@@H](CC[C@]3(O)CCCO)[C@@H]3CCC4=CC(=O)CCC4=C32)cc1 (single isomer, unassigned) [ONAPRISTONE] | – | – | – | 41.8 nM | – | – | – | – | – | > 1000 nM | < 20 nM | – | 269 nM | > 100 nM | 27 nM | > 1000 nM | 99% |
